Test results taken from the Kinase Knowledgebase extract (Sharma et al. 2016).

molecular target: EGFR (human) (UniProt P00533)
Sequence (P00533 whole entry, looked up): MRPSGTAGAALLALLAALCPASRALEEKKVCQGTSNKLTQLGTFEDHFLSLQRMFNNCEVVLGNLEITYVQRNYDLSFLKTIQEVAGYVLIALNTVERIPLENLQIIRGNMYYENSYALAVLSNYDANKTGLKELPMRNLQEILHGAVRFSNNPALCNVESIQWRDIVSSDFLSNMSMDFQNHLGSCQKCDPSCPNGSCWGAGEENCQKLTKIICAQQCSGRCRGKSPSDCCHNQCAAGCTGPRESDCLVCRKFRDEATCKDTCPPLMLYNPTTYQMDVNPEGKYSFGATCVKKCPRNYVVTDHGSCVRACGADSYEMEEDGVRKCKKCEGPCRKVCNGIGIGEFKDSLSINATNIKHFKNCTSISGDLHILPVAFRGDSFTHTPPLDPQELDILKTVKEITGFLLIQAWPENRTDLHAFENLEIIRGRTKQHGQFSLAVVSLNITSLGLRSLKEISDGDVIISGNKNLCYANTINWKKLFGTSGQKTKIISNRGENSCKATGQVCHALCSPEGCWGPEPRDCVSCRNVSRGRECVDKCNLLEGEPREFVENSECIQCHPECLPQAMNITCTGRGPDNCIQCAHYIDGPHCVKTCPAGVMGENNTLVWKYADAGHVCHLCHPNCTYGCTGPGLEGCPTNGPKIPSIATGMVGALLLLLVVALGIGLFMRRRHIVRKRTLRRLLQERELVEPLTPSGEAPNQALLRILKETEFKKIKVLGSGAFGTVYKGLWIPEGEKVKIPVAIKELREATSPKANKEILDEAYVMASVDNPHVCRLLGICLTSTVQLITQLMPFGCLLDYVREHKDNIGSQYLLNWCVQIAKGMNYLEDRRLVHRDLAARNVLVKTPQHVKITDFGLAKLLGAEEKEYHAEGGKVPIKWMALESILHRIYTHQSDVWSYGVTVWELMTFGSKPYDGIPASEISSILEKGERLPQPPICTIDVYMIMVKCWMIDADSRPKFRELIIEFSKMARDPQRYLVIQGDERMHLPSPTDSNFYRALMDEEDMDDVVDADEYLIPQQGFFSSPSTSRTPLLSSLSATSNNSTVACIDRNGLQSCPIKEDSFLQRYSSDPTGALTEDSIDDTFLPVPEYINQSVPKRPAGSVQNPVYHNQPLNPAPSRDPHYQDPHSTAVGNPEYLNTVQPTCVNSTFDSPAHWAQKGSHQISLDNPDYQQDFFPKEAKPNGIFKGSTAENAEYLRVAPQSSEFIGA

| SMILES | IC50 [nM] |
| --- | --- |
| CC(C)(C#Cc1cc2ncnc(Nc3ccc(F)c(Cl)c3)c2cc1NS(C)(=O)=O)N1CCN(S(C)(=O)=O)CC1 | 2.1 |
| CS(=O)(=O)Nc1cc2c(Nc3ccc(F)c(Cl)c3)ncnc2cc1C#CCCN1CCOCC1 | < 1 |
| C=CC(=O)Nc1cc2c(Nc3ccc(F)c(Cl)c3)ncnc2cc1C#CC(C)(C)N(C)CCOC | 3.7 |
| C#Cc1cccc(Nc2ncnc3cc(OCC)c(C#CC(C)(C)N(C)C4CCN(C)CC4)cc23)c1 | 3.2 |
| CCOCC(C#Cc1cc2c(Nc3ccc(F)c(Cl)c3)ncnc2cc1OCC)(COCC)N1CCN(C)CC1 | > 10 |
| C=CC(=O)Nc1cc2c(Nc3ccc(F)c(Cl)c3)ncnc2cc1C#CC(C)(C)N(CC)CCC(=O)OC | 2.6 |
| CN1CCN(CC#Cc2cc3ncnc(Nc4ccc(F)c(Cl)c4)c3cc2NS(C)(=O)=O)CC1 | < 1 |
| CC(C)(C#Cc1cc2ncnc(Nc3ccc(F)c(Cl)c3)c2cc1NS(C)(=O)=O)N1CCC(=O)CC1 | 2.1 |
| COC1CCN(C(C)(C)C#Cc2cc3ncnc(Nc4ccc(F)c(Cl)c4)c3cc2NS(C)(=O)=O)CC1 | 5.3 |
| CCOc1cc2ncnc(Nc3ccc(F)c(Cl)c3)c2cc1C#CCCN1CCN(C)CC1 | 1.2 |
| C=CC(=O)Nc1cc2c(Nc3ccc(F)c(Cl)c3)ncnc2cc1C#CC(C)(C)N1CCC(=O)CC1 | 1.8 |
| CCOCC(C#Cc1cc2ncnc(Nc3ccc(F)c(Cl)c3)c2cc1NS(C)(=O)=O)(COCC)N1CCN(C)CC1 | 10.3 |
| CN1CCCN(C(C)(C)C#Cc2cc3ncnc(Nc4ccc(F)c(Cl)c4)c3cc2NS(C)(=O)=O)CC1 | 1.9 |
| C=CC(=O)Nc1cc2c(Nc3ccc(F)c(Cl)c3)ncnc2cc1C#CCCN1CCOCC1 | < 1 |
| COCCN(CCOC)C(C)(C)C#Cc1cc2ncnc(Nc3ccc(F)c(Cl)c3)c2cc1NS(C)(=O)=O | 6.7 |
| COCCN(C)C(C)(C)C#Cc1cc2ncnc(Nc3ccc(F)c(Cl)c3)c2cc1NS(C)(=O)=O | 3.1 |
| C=CC(=O)Nc1cc2c(Nc3ccc(F)c(Cl)c3)ncnc2cc1C#CC(C)(C)N1CCCC1 | 2.6 |
| C=CC(=O)Nc1cc2c(Nc3ccc(F)c(Cl)c3)ncnc2cc1C#CC1(N2CCN(C)CC2)CCCCC1 | 2.4 |
| C=CC(=O)Nc1cc2c(Nc3ccc(F)c(Cl)c3)ncnc2cc1C#CC(C)(C)N(C)CCN(C)C | 2.4 |
| C=CC(=O)Nc1cc2c(Nc3ccc(F)c(Cl)c3)ncnc2cc1C#CC(COCC)(COCC)N1CCN(C)CC1 | 4.4 |

| SMILES | IC50 [nM] |
| --- | --- |
| C=CC(=O)Nc1cc2c(Nc3ccc(F)c(Cl)c3)ncnc2cc1C#CC(C)(C)N1CCN(C(C)=O)CC1 | < 1 |
| C=CC(=O)Nc1cc2c(Nc3ccc(F)c(Cl)c3)ncnc2cc1C#CC(C)(C)N1CCC(O)CC1 | 1.9 |
| C#Cc1cccc(Nc2ncnc3cc(OCC)c(C#CC(C)(C)N4CCN(C(C)=O)CC4)cc23)c1 | > 10 |
| C=CC(=O)Nc1cc2c(Nc3ccc(F)c(Cl)c3)ncnc2cc1/C=C/CCN1CCN(C)CC1 | < 1 |
| C=CC(=O)Nc1cc2c(Nc3ccc(F)c(Cl)c3)ncnc2cc1C#CC(CC)(CC)N1CCN(C)CC1 | 2.1 |
| C=CC(=O)Nc1cc2c(Nc3ccc(F)c(Cl)c3)ncnc2cc1C#CC(C)(C)N1CCN(S(C)(=O)=O)CC1 | 1.9 |
| C=CC(=O)Nc1cc2c(Nc3ccc(F)c(Cl)c3)ncnc2cc1C#CCN1CCOCC1 | < 1 |
| CCOc1cc2ncnc(Nc3ccc(F)c(Cl)c3)c2cc1C#CC(C)(C)N(C)C1CCN(C)CC1 | 3.8 |
| C=CC(=O)Nc1cc2c(Nc3ccc(F)c(Cl)c3)ncnc2cc1C#CC(C)(C)N1CCN(CC)CC1 | 3.3 |
| C=CC(=O)Nc1cc2c(Nc3ccc(F)c(Cl)c3)ncnc2cc1C#CC(C)(C)N1CCN(CCC#N)CC1 | 2.9 |
| C=CC(=O)Nc1cc2c(Nc3ccc(F)c(Cl)c3)ncnc2cc1C#CC(C)(C)N1CCC(OC)CC1 | 4.6 |
| COc1cc2ncnc(Nc3cccc(C(C)=O)c3)c2cc1C#CC(C)(C)N1CCN(C)CC1 | > 10 |
| C=CC(=O)Nc1cc2c(Nc3ccc(F)c(Cl)c3)ncnc2cc1C#CC(C)(C)N1CCN(CCOC)CC1 | 1.5 |
| C=CC(=O)Nc1cc2c(Nc3ccc(F)c(Cl)c3)ncnc2cc1C#CC(C)(C)N1CCCN(C)CC1 | 3.2 |
| CN(C)CCN(C)C(C)(C)C#Cc1cc2ncnc(Nc3ccc(F)c(Cl)c3)c2cc1NS(C)(=O)=O | 2.9 |
| CN1CCN(CCC#Cc2cc3ncnc(Nc4ccc(F)c(Cl)c4)c3cc2NS(C)(=O)=O)CC1 | < 1 |
| C=CC(=O)Nc1cc2c(Nc3ccc(F)c(Cl)c3)ncnc2cc1C#CC(C)(C)N(CCOC)CCOC | 3.5 |
| CC(=O)N1CCN(C(C)(C)C#Cc2cc3ncnc(Nc4ccc(F)c(Cl)c4)c3cc2NS(C)(=O)=O)CC1 | 2.1 |
| C=CC(=O)Nc1cc2c(Nc3ccc(F)c(Cl)c3)ncnc2cc1C#CC(C)(C)N1CCN(C)CC1 | 1.8 |
| C=CC(=O)Nc1cc2c(Nc3ccc(F)c(Cl)c3)ncnc2cc1C#CCN1CCN(C)CC1 | < 1 |
